Our source for the logP values is the SangsterLogP compilation.

The data set can be described thus: method code SF-AS, from DOI: 10.1021/jm00244a011, PMID: 808606.
The logP is a log measure of how a compound divides between an organic and an aqueous phase. `CCOC(=O)CCN1C(=O)C=CC1=O` gave a logP of 0.41.
The same measure for `O=C(O)CCCN1C(=O)C=CC1=O`: 0.4; for `O=C(O)CCCCCN1C(=O)C=CC1=O`: 1.15.
The molecule `CCOC(=O)CCCN1C(=O)C=CC1=O` registered a logP of 0.67.
The figure for `O=C(O)CCCCN1C(=O)C=CC1=O` is 0.6.
`CCOC(=O)CN1C(=O)C=CC1=O` had a logP of 0.49. The logP values of the last two molecules are within 0.2 log units of each other.
The figure for `O=C(O)CN1C(=O)C=CC1=O` is -0.14; for `CCOC(=O)CCCCCN1C(=O)C=CC1=O` it is 1.5; for `O=C(O)CCN1C(=O)C=CC1=O` it is 0.04.
The same measure for `O=C(O)CCCCCCCN1C(=O)C=CC1=O`: 1.99.
